This assay has as its system LNCaP cell loss, flow cytometry event count, 4 d. In words: LNCaP cell killing by flow cytometry event count, dose response, cytotoxicity control for prostate cell differentiation activator project (AID 1197).

The source made the active and inactive calls. How the calls were made is not given here.

The EC50 is the concentration at which the effect is half-maximal.

In the case of `N=c1n(CCN2CCCCC2)c2ccccc2n1CC(O)COc1ccccc1` (configuration not stated), the EC50 is 19.2 µM (inactive).

`CCN(CCNC(=O)C1CCN(Cc2nc(-c3ccc(Cl)cc3)oc2C)CC1)c1ccccc1`: the concentration for a half-maximal effect (EC50) is 8.33 µM. In the case of `COc1ccc(Nc2nc(N)nc(CN3CCC(Cc4ccccc4)CC3)n2)cc1` it was 17 µM (inactive); in that of `Cc1noc(/C=C/c2ccco2)c1S(=O)(=O)N1CCC(C(=O)N2CCc3ccccc3C2)CC1`, 4.53 µM; in that of `CCN(CCNC(=O)C1CCN(Cc2nc(-c3cccc(Cl)c3)oc2C)CC1)c1ccccc1`, 3.07 µM. In the case of `Cc1ccccc1CS(=O)(=O)CCC(=O)NCCCN1CCN(c2ccccc2F)CC1` it was 6.85 µM; in that of `CCN1CCCC1CNC(=O)C1CCN(Cc2nc(-c3cccc(Br)c3)oc2C)CC1` (configuration not stated), 6.68 µM. In the case of `Cc1cc2c(=O)n(CC(=O)N3CCN(c4ccccc4)CC3)cnc2s1`, the EC50 was 1.61 µM. On to `CCOC(=O)c1[nH]c(C)c(C(=O)N2CCc3ccccc32)c1C`, for which the half-maximal effective concentration (EC50) is 0.888 µM. The value for `CCOc1ccc(-c2cc(C(=O)NCCCN3CCN(CC)CC3)c3ccccc3n2)cc1` was 21.7 µM (inactive); that for `COc1ccccc1N1CCN(Cc2cc(Br)c(O)c3ncccc23)CC1` was 0.351 µM; that for `Cn1c(=O)cc(OCC(=O)NCCCN2CCN(c3ccccc3F)CC2)c2ccccc21` was 0.101 µM. In the case of `Cn1nc(-c2ccc(Cl)cc2)c2cc(C(=O)NCCCN3CCCC3)sc21` it was 13 µM (inactive); in that of `COc1ccc(-c2noc(-c3cc(Cl)ccc3Cl)n2)cc1OC`, 4.83 µM. In the case of `Cc1oc(-c2ccc(Cl)cc2)nc1CN1CCC(C(=O)NCCCN2CCOCC2)CC1` it was 6.27 µM; in that of `CC(C)N1CCC2(CC1)N=C(c1ccc3c(c1)OCO3)CC(c1cc(Cl)ccc1O)N2` (configuration not stated), 1.94 µM; in that of `COc1ccc2cc3cc(C(=O)Nc4ccccc4N4CCN(C)CC4)oc3nc2c1`, 19.3 µM (inactive).
